Consider two compounds from patent US6277835A, “Method of tumor treatment” (priority 2000, dated 2001).

Data set [1] concerns kidney (blood urea nitrogen). The data set is described as follows: Serum BUN assay. Type of data set: in vivo, C3H mice. The conditions noted are these: day six. An excerpt:
No anticoagulants were used.

Data set [2] relates to peripheral white cell counts (bone marrow). The data set is described as follows: Peripheral white cell counts. As to conditions: day 3; tirapazamine […]; cisplatin 10, 14 and 18 mg/kg. On the procedure:
Blood samples were taken from tail veins or by cardiac puncture. No anticoagulants were used. Peripheral white cell counts for individual mice were determined from 20 μl whole blood diluted in 0.280 ml 3% acetic acid. For serum BUN assays, blood from two mice was pooled, coagulated, vortexed, and centrifuged at 830 g for 15 minutes. After the serum was aspirated, BUN values were determined by a commercial clinical veterinary laboratory. Survival to 30 days was also recorded in another experiment.

Data set [3] concerns RIF-1 cells. The experiment in a line: In vitro RIF-1 clonogenic cell survival under hypoxic conditions. In kind it is cell-based. As to conditions: Mus musculus, RIF-1, 1 h, read-out: cell survival.
Protocol: (§1) For the studies on cells in vitro, RIF-1 cells were seeded into 60 mm glass petri dishes in Waymouth's medium supplemented with 15% fetal bovine serum at a concentration of 2×10^4 cells per dish. The experiments were performed 4 to 5 days later when there were approximately 10^6 cell per dish at the time of treatment. The growth medium was then replaced with 2 ml of medium without serum containing tirapazamine at a concentration of either 2 or 4 μg/ml. […] To achieve hypoxia, the dishes were loaded into specially fabricated, prewarmed aluminum gassing chambers which were placed in a shaking table and connected to a gassing manifold comprising a vacuum outlet line and inlet lines for air or nitrogen (+5% CO^2). […] After gassing, the chambers were sealed and incubated for one hour at 37 C.
Data set [4] concerns FSaIIC Murine Fibrosarcoma. As to conditions: cited from earlier work.
The test system of data set [5] is RIF-1 cells.
Protocol: as §1

In the case of `N.N.[Cl][Pt][Cl]` [cisplatin], the BUN level entry is reported as “approximately 30 mg/dl” in data set [1] (10 mg/kg cisplatin alone, similar to untreated); “approximately 30 mg/dl” in data set [1] (14 mg/kg cisplatin alone, similar to untreated); “about 80 mg/dl” in data set [1] (18 mg/kg cisplatin alone). Besides, in data set [2], the leukopenia result is on record as “mild leukopenia”.
With `Nc1n[n+]([O-])c2ccccc2[n+]1[O-]` [tirapazamine, 3-amino-1,2,4-benzotriazine 1,4-dioxide], in data set [3], the viability at 2 µg/mL was found to be 30% and the viability at 4 µg/mL worked out at 0.9%. The “effect on tumor cells with carmustine” value in data set [4] (SR 4233 just before single-dose carmustine) is recorded as “marked dose enhancement leading to synergistic cytotoxic effects on tumor cells”. Also, in data set [4] (SR 4233 just before single-dose cyclophosphamide), the “effect on tumor cells with cyclophosphamide” value is reported as “marked dose enhancement leading to synergistic cytotoxic effects on tumor cells”. Moreover, the “effect on tumor cells with melphalan” value in data set [4] (SR 4233 just before single-dose melphalan) was “marked dose enhancement leading to synergistic cytotoxic effects on tumor cells”. In data set [4] (SR 4233 just prior to single-dose cisplatin), the effect with cisplatin entry is listed as “additive effect, except at the highest dose level of cisplatin”. For the same compound, the “cytotoxicity under aerobic conditions” value in data set [5] is “no cytotoxicity”.
